Test results published in ChEMBL document CHEMBL2440069, “Synthesis and biological evaluation of direct thrombin inhibitors bearing 4-(piperidin-1-yl)pyridine at the P1 position with potent anticoagulant activity” (J Med Chem, 2013).

What was measured:
Prothrombin [1] = biological target: Prothrombin (Bos taurus, UniProt P00735); experiment: Inhibition of bovine thrombin using D-Phe-Pip-Arg-p-NA as substrate by chromogenic assay
Coagulation factor X = Coagulation factor X (Homo sapiens, UniProt P00742); experiment: Inhibition of human factor 10a using Z-D-Arg-Gly-Arg-p-NA as substrate by chromogenic assay
[2] = 1-octanol-water partition coefficient, log D of the compound; type: physicochemical
Plasma = experiment: Anticoagulant activity in human plasma assessed as concentration required to double activated […] time; type: functional
[3] = Permeability of the compound at pH 6.8 by PAMPA assay; type: ADME
Chymotrypsinogen A = Chymotrypsinogen A (Bos taurus, UniProt P00766); experiment: Inhibition of bovine alpha-chymotrypsin using N-succinyl-Ala-Ala-Pro-Phe-p-NA as substrate by chromogenic assay
[4] = Dissociation constant, pKa of the compound by potentiometric titration; type: physicochemical
[5] = 1-octanol-water partition coefficient, log P of the neutral form compound by HILIC analysis; type: physicochemical
Coagulation factor VII = biological target: T1, Coagulation factor VII (Homo sapiens, UniProt P08709); experiment: Inhibition of human recombinant factor 7a using spectrozyme as substrate by chromogenic assay
T1 sequence (P08709 whole entry): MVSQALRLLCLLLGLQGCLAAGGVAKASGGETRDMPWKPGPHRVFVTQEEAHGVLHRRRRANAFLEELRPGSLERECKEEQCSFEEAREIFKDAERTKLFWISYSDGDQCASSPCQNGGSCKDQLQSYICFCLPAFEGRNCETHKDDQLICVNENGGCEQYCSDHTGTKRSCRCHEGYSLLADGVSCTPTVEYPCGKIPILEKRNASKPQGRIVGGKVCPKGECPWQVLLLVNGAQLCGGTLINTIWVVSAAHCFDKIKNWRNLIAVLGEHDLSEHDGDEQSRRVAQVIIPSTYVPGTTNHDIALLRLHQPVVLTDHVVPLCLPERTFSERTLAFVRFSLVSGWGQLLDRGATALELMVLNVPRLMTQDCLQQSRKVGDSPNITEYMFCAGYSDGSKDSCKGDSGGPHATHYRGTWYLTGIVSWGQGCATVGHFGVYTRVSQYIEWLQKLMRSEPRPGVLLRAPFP

Prothrombin [6] = biological target: Prothrombin (Homo sapiens, UniProt P00734); experiment: Inhibition of human thrombin using D-Phe-Pip-Arg-p-NA as substrate by chromogenic assay
[7] = Inhibition of bovine pancreatic trypsin using D-Phe-Pip-Arg-p-NA as substrate by chromogenic assay; set-up: species or system Bos taurus
Neutrophil elastase = biological target: T2, Neutrophil elastase (Homo sapiens, UniProt P08246); experiment: Inhibition of human neutrophil leukocyte elastase using N-(methoxysuccinyl)-Ala-Ala-Pro-Val-p-NA as substrate by chromogenic assay
T2 sequence (P08246 whole entry): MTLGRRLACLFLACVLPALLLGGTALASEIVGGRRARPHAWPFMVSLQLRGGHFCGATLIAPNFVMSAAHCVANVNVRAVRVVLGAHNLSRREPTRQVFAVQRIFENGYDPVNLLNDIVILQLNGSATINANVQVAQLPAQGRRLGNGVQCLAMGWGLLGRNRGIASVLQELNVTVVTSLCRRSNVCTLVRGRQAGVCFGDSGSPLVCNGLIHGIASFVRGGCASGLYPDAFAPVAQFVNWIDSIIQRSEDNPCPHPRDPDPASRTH

Coagulation factor X, sequence (P00742 41-179 limits assumed): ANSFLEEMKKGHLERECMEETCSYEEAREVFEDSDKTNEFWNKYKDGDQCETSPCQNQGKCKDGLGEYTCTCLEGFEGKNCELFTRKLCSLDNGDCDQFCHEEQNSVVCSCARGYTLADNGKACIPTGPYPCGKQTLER
Coagulation factor X, sequence (P00742 235-488 limits assumed): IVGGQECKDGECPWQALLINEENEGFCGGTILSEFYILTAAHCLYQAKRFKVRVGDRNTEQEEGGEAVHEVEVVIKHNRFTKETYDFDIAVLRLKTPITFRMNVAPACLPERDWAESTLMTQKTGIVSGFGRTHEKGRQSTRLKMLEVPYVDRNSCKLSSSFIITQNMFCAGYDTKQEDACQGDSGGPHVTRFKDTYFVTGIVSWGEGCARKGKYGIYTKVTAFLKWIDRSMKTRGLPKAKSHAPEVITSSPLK

With O=C(Nc1ccccc1OCc1cccc(F)c1)C1CCN(c2ccncc2)CC1 the Ki (Prothrombin [1]; read-out: Ki) was over 250 µM and the Ki (Coagulation factor X) was over 250 µM.
In the case of Fc1cccc(COc2cccc(NCC3CCN(c4ccncc4)CC3)c2)c1, the Ki (Prothrombin [1]; read-out: Ki) is reported as over 250 µM and the Ki (Coagulation factor X) is reported as 3.83 µM.
Molecule O=C(Nc1cccc(CCc2cccc(F)c2)c1)C1CCN(c2ccncc2)CC1 has a logD [2] of 3.58, a Ki (Prothrombin [1]; read-out: Ki) of 12.4 µM and a Ki (Prothrombin [1]; read-out: pKi (converted)) of 12.3 µM. For the same molecule, the Ki (Coagulation factor X) was 44.1 µM.
Molecule O=C(Nc1cccc(COc2cccc(F)c2)c1)C1CCN(c2ccncc2)CC1 has a logD [2] of 3.02, a Ki (Prothrombin [1]; read-out: Ki) of 18.2 µM and a Ki (Coagulation factor X) of over 250 µM.
In the case of O=C(Nc1cccc(OCCc2cccc(F)c2)c1)C1CCN(c2ccncc2)CC1, the Ki (Prothrombin [1]; read-out: Ki) is reported as 0.488 µM, the Ki (Prothrombin [1]; read-out: pKi (converted)) is reported as 18.2 µM and the Ki (Coagulation factor X) is reported as 2.14 µM.
For CN(C(=O)C1CCN(c2ccncc2)CC1)c1cccc(OCc2cccc(F)c2)c1, the Ki (Prothrombin [1]; read-out: Ki) was over 250 µM and the Ki (Coagulation factor X) was 23.6 µM.
For O=C(Nc1cccc(OCc2ccc3c(c2)OCO3)c1)C1CCN(c2ccncc2)CC1, the 2aPTT (Plasma) was over 200 µM, the “log Pe” value [3] was “impermeable” and the Ki (Chymotrypsinogen A) was over 250 µM. It also gave a Ki (Prothrombin [1]; read-out: Ki) of 0.053 µM, a pKa [4] of 9.1 and a Ki (Coagulation factor X) of 3.72 µM. It also gave a logP [5] of 4.9.
Work on COc1cc(COc2cccc(NC(=O)C3CCN(c4ccncc4)CC3)c2)cc(OC)c1 yielded a 2aPTT (Plasma) of 200 µM, a Ki (Chymotrypsinogen A) of 33.8 µM and a Ki (Prothrombin [1]; read-out: Ki) of 0.083 µM. The pKa [4] was 8.9, the Ki (Coagulation factor X) was 126 µM and the logP [5] was 4.9.
In the case of COc1ccc(COc2cccc(NC(=O)C3CCN(c4ccncc4)CC3)c2)cc1OC, the 2aPTT (Plasma) is reported as 154 µM, the Ki (Chymotrypsinogen A) is reported as 71.5 µM and the Ki (Prothrombin [1]; read-out: Ki) is reported as 0.031 µM. It also gave a pKa [4] of 9.2, a Ki (Coagulation factor VII) of over 250 µM and a Ki (Coagulation factor X) of 0.606 µM. It also gave a Ki (Prothrombin [6]) of 0.755 µM, a Ki [7] of 27 µM and a Ki (Neutrophil elastase) of over 250 µM. It also gave a logP [5] of 4.9.
In the case of COc1ccc(COc2cccc(NC(=O)C3CCN(c4ccncc4)CC3)c2)cc1, the Ki (Prothrombin [1]; read-out: Ki) is reported as 2.03 µM and the Ki (Coagulation factor X) is reported as 11.1 µM.
COc1cccc(COc2cccc(NC(=O)C3CCN(c4ccncc4)CC3)c2)c1 gave a Ki (Prothrombin [1]; read-out: Ki) of 1.15 µM and a Ki (Coagulation factor X) of 7.23 µM.
COc1ccccc1COc1cccc(NC(=O)C2CCN(c3ccncc3)CC2)c1 gave a Ki (Prothrombin [1]; read-out: Ki) of 1.3 µM and a Ki (Coagulation factor X) of 16.4 µM.
For CN(C)Cc1ccc(COc2cccc(NC(=O)C3CCN(c4ccncc4)CC3)c2)cc1, the Ki (Prothrombin [1]; read-out: Ki) was 8.19 µM and the Ki (Coagulation factor X) was 12.2 µM.
Nc1cccc(COc2cccc(NC(=O)C3CCN(c4ccncc4)CC3)c2)c1 showed a Ki (Prothrombin [1]; read-out: Ki) of 13.3 µM and a Ki (Coagulation factor X) of 36.1 µM.
For Nc1ccc(COc2cccc(NC(=O)C3CCN(c4ccncc4)CC3)c2)cc1, the Ki (Prothrombin [1]; read-out: Ki) was 10 µM and the Ki (Coagulation factor X) was 25 µM.
O=C(Nc1cccc(OCc2ccc(C(F)(F)F)cc2)c1)C1CCN(c2ccncc2)CC1 showed a Ki (Prothrombin [1]; read-out: Ki) of 3.4 µM and a Ki (Coagulation factor X) of 48.5 µM.
In the case of CS(=O)(=O)c1cccc(COc2cccc(NC(=O)C3CCN(c4ccncc4)CC3)c2)c1, the Ki (Prothrombin [1]; read-out: Ki) is reported as 15.9 µM and the Ki (Coagulation factor X) is reported as 15.6 µM.
Molecule CS(=O)(=O)c1ccccc1COc1cccc(NC(=O)C2CCN(c3ccncc3)CC2)c1 has a Ki (Prothrombin [1]; read-out: Ki) of 12.3 µM and a Ki (Coagulation factor X) of 35.1 µM.
CS(=O)(=O)c1ccc(COc2cccc(NC(=O)C3CCN(c4ccncc4)CC3)c2)cc1 showed a 2aPTT (Plasma) of 98.2 µM, a Ki (Chymotrypsinogen A) of over 250 µM and a Ki (Prothrombin [1]; read-out: Ki) of 0.124 µM. For the same molecule, the pKa [4] was 9.1, the Ki (Coagulation factor X) was 7.73 µM and the logP [5] was 4.9.
